Reference: patent publication US5952189A (priority 1997, dated 1999)
“Also recorded” adds a separate entry of the source. Read-outs that look alike come from different tables or passages of the source. Starred links: 1 amine or outer side, 2 acyl side, 3 side chain; linkers in the order of their positions; H or OH if unused. Positions of bridges follow the written chain, without caps; N, C: chain ends. Non-standard residues stand in square brackets, D forms with d. Residues, ends and D or L forms follow the SMILES beside them. Chains are numbered I, II in the order given. Actinocin(9to1) = Cc1c2oc3c(C)ccc(C(=O)[*:1])c3nc-2c(C(=O)[*:2])c(N)c1=O; NMeV = CN[C@H](C(=O)O)C(C)C; Sar = CNCC(=O)O

How the values were obtained:
U937 cells [1] = experiment: cells; assay type: cell-based, human
U937 cells [2] = settings: cited from earlier work
[3] = system: TNF-induced hepatocyte apoptosis; experiment: TNF-induced hepatotoxicity in mice (serum transaminases); assay type: in vivo, Balb/c mice
Protocol: In this example the concept that a protease inhibitor such as DK120 may attenuate inappropriate apoptosis that causes tissue damage in systemic inflammatory response syndrome (SIRS) was tested. TNF-induced hepatocyte apoptosis in mice was performed as described by Leist et al. ((1995) J. Immunol. 154:1778-1786). Briefly, Balb/c mice were injected ip with […] murine TNF combined with […] Actinomycin D/mouse. Twelve h later, mice were anesthetized and bled from the heart to measure serum transaminase levels, which are standard clinically used indicators of liver damage. Mice that were treated with protease inhibitors were injected ip with these compounds 30 min. prior to TNF. Alanine aminotransferase (ALT) and aspartate aminotransferase (AST) were assayed using a commercially available kit (Sigma). […] However, treatment with DK120 caused a doss-dependent decrease in serum transaminase levels. […] However, a drug that nonspecifically blocks all apoptotic pathways that normally function to maintain homeostasis may not be clinically desirable. Subsequent studies were performed to determine if DK120 could also suppress hepatocyte apoptosis in response to a different stimulus.
^1 Mice (2 for each treatment) were injected ip +/- DK120 30 min prio
to TNF and Actinomycin D. Twelve h later serum transaminase levels were
(§1) To further explore the specificity of DK120 attenuation of TNF-induced hepatotoxicity, several compounds were tested that were found previously not to inhibit apoptotic protease proteolytic activity as measured against a synthetic substrate (data not shown). […] Therefore, the protection mediated by DK120 is not a property of any boron-containing molecule.
^1 Mice (3 for each treatment) were injected ip +/- the inhibitors 30
min prior to TNF and Actinomycin D. Twelve h later serum transaminase

3T3 = experiment: Inhibition of UV-induced DNA fragmentation in 3T3 cells; assay type: cell-based, murine; settings: inhibitor 100 μM, UV 0.5 J/cm^2, 8 h, no inhibitor 38 ± 1.9
Protocol: To determine if these findings were unique to U937 or if other cell lines also require protease activity to undergo apoptosis, the effects of several inhibitors on apoptosis induced by UV light in the human mammary carcinoma, BT-20, the murine fibroblast cell line, 3T3, and the human myeloid leukemia, HL-60 were tested. For the BT-20 and 3T3 cells, target cells were pretreated for one hour (with or without inhibitors as indicated in the table) and exposed to UV light at 0.5 J/cm^2 and then incubated for eight hours prior to assessing DNA fragmentation. HL-60 cells were pretreated for one hour (with or without inhibitors as indicated in the table) and exposed to UV at 0.2 J/cm^2 and then incubated for two hours prior to assessing DNA fragmentation.
DNA fragmentation assays were carried out according to the protocol of Wright S. C., et al. (1,992) J. Cell. Biochem. 48, 344-355. Target cells were labeled with ^3 H-thymidine and plated in triplicate in flat bottom microtiter plates. Cells were incubated for the indicated length of time for each experiment in the presence of TNF or various inhibitors. In some experiments, cells were treated with UV light at 245 nm using a UV Crosslinker (Fisher Scientific). Assays were harvested and counted on a Packard matrix 96 beta counter. Percent DNA fragmentation was calculated as for the nuclear assay described in Example 3. In assays to test the effects of various inhibitors, the pH of extra wells containing assay buffer, target cells, and each inhibitor was always checked at the beginning and end of each assay to assure that the pH remained at 7.5.

BT-20 = assay type: cell-based, human; settings: for % DNA fragmentation: BT-20, inhibitor 100 μM, UV 0.5 J/cm^2, 8 h, no inhibitor 44 ± 3.6; for Effect on UV-induced DNA fragmentation: summary of Table 2 (BT-20, 3T3, HL-60)
[4] = system: LPS-induced hepatotoxicity
apoptotic protease = experiment: Inhibition of apoptotic protease proteolytic activity against a synthetic substrate; assay type: biochemical, human; settings: data not shown
Protocol: Proteolytic activity was assayed using synthetic substrates selective for different known proteases. All assays were set up by adding 0.02 ml of sample (or known enzyme as a positive control) plus 0.18 ml of appropriate substrate dissolved in PBS PH 7.5 in triplicate in flat bottom microtiter plates, incubated for the indicated length of time at room temperature, and the OD at 405 nm measured using a plate reader.
Elastase-like activity was measured using N-methoxysuccinyl-ala-ala-pro-valp-nitroanilide (SEQ ID NO: 3) (MAAPV) at 0.25 mM as a substrate. For convenience and maximum sensitivity, these assays were routinely incubated 20 h to monitor protease purification. Under these conditions, the elastase dose response was linear up to a concentration of 6.0 μg/ml (OD of 1.0), see FIG. 3C. […] In order to quantitate the activity of the purified protease, identical assays were set up but kinetic readings of OD were taken every hour from 1-6 h. One unit of enzyme was calculated as the amount of enzyme that hydrolyzes 1.0 nmol substrate/h.
as §1

isolated U937 nuclei [5] = experiment: DNA fragmentation assay using isolated U937 nuclei; assay type: cell-based, human; settings: concentrations as high as 0.1 mg/ml (FIG. 6A)
Protocol: U937 cells were labeled with ^3 H-thymidine by culturing overnight with isotope at 0.5 μCi/ml. The cells were pelleted, washed once, and the cytoplasmic membrane lysed by resuspending the cells in assay buffer (50 mM Tris, 250 mM sucrose 10 mM MgSO4, pH 7.5) plus 0.02% NP-40. Nuclei were then pelleted and resuspended in assay buffer at 1×10^6 /ml. The assay was set up in triplicate in flat bottom microtiter plates under sterile conditions. Nuclei (0.05 ml) were mixed with 0.05 ml of sample diluted in 50 mM Tris pH 7.5 or buffer alone to determine total counts. Plates were incubated for 5 h at 37° C. and then harvested by the addition of 0.1 ml of harvesting buffer (10 mM Tris, 10 mM EDTA, 0.3% Triton X-100, pH 7.5). Plates were harvested by filtration onto glass fiber paper and counted on a Packard Matrix 96 beta counter. Percent DNA fragmentation was calculated as follows: […]

[6] = Chymotrypsin-like activity on SAAPP substrate; assay type: biochemical; settings: eluted from DK120 column
Protocol: To purify the apoptotic protease, a DK120 affinity column was prepared.
To measure chymotrypsin-like activity, N-succinyl-ala-ala-pro-phe p-nitroanilide (SEQ ID NO: 2) (SAAPP) at 0.1 mM was used as the substrate. Trypsin-like activity was measured using N-α-benzyloxycarbonyl-L-lysine thiobenzyl ester (BLT) at 0.2 mM plus 0.11 mM […].

[7] = Binding to DK120 affinity column; settings: eluted with 0.1 M HCl
isolated U937 nuclei [8] = experiment: Gel electrophoresis of DNA fragmentation in isolated U937 nuclei; assay type: cell-based, human

CC(=O)NC(Cc1ccccc1)C(=O)Oc1ccc2ccccc2c1 (racemic) [APNE, N-acetyl-DL-Phenylalanine β-naphthyl ester]
IC50 (U937 cells [1]; Homo sapiens, U-937, read-out: IC50 (Active Concentration), TNF and UV-light induced apoptosis): 40 µM | Effect on DNA fragmentation induced by TNF or UV light (U937 cells [1]; U937 cells, result in words): blocked DNA fragmentation

NC(=O)c1cccc(N)c1 [3-aminobenzamide]
Effect on apoptosis (U937 cells [2]): blocked

Cc1c2oc3c(C)ccc(C(=O)N[C@@H]4C(=O)N[C@H](C(C)C)C(=O)N5CCC[C@H]5C(=O)N(C)CC(=O)N(C)[C@@H](C(C)C)C(=O)O[C@@H]4C)c3nc-2c(C(=O)N[C@@H]2C(=O)N[C@H](C(C)C)C(=O)N3CCC[C@H]3C(=O)N(C)CC(=O)N(C)[C@@H](C(C)C)C(=O)O[C@@H]2C)c(N)c1=O [Actinomycin D] (I: T[dV]P[Sar][NMeV] / II: T[dV]P[Sar][NMeV]; ester I:1-I:C, II:1-II:C; linker I:N-II:N via Actinocin(9to1))
ALT ([3]; Table 7, Actinomycin D 15 mg alone, 12 h, none 39): 70 U/ml | AST ([3]; Table 7, Actinomycin D 15 mg alone, 12 h, none 51): 47 U/ml | ALT ([3]; Table 10 Exp. #1, Actinomycin D 15 mg alone, 12 h): 71 +/- 8.5 U/ml | ALT ([3]; Table 10 Exp. #2, Actinomycin D 15 mg alone, 12 h): 139 +/- 29 U/ml

N=C(N)c1ccccc1 [Benzamidine]
Effect on DNA fragmentation induced by TNF or UV light (U937 cells [1]; U937 cells, result in words): without effect

CC(C)C[C@H](NC(=O)[C@@H](O)[C@H](N)Cc1ccccc1)C(=O)O [Bestatin]
Effect on DNA fragmentation induced by TNF or UV light (U937 cells [1]; U937 cells, result in words): inactive

CC(C)C[C@H](NC(=O)[C@@H](NC(=O)N[C@@H](Cc1ccccc1)C(=O)O)[C@@H]1CCN=C(N)N1)C(=O)N[C@H](C=O)Cc1ccccc1 [Chymostatin]
Effect on DNA fragmentation induced by TNF or UV light (U937 cells [1]; U937 cells, result in words): without effect

CC(C)CC(NC(=O)C1OC1C(=O)O)C(=O)NCCCCN=C(N)N (centres unmarked) [E64]
Effect on DNA fragmentation induced by TNF or UV light (U937 cells [1]; U937 cells, result in words): inactive | % DNA fragmentation (3T3): 42 ± 2.7% | % DNA fragmentation (BT-20): 41 ± 5.6% | Effect on UV-induced DNA fragmentation (BT-20): inactive

N[C@H]1C(O)O[C@H](CO)[C@H](O)[C@@H]1O (some centres unmarked) [Gln, galactosamine]
ALT ([4]; Gln 15 mg alone, survivors): 137 +/- 33 U/ml | AST ([4]; Gln 15 mg alone, survivors): 67 +/- 4.6 U/ml | % Mortality ([4]; mouse, in vivo): 0%

CC(=O)N[C@@H](CC(C)C)C(=O)N[C@@H](CC(C)C)C(=O)N[C@H](C=O)CCCNC(=N)N [Leupeptin]
Effect on DNA fragmentation induced by TNF or UV light (U937 cells [1]; U937 cells, result in words): without effect | % DNA fragmentation (3T3): 36 ± 2.6% | % DNA fragmentation (BT-20): 42 ± 5.6% | Effect on UV-induced DNA fragmentation (BT-20): inactive

CCN1C(=O)C=CC1=O [N-ethylmaleimide]
Effect on DNA fragmentation induced by TNF or UV light (U937 cells [1]; U937 cells, result in words): inactive

O=S(=O)(F)Cc1ccccc1 [PMSF, phenylmethylsulfonylfluoride]
Effect on DNA fragmentation induced by TNF or UV light (U937 cells [1]): not inhibited; also recorded: without effect | Inactive Compounds, Highest Concentration Tested (highest nontoxic concentration, inactive) (U937 cells [1]): 100 µM

CCCCCCCCCCCCCC(=O)O[C@@H]1[C@@H](C)[C@@]2(O)[C@@H](C=C(CO)C[C@]3(O)C(=O)C(C)=C[C@@H]23)[C@@H]2C(C)(C)[C@]12OC(C)=O [Phorbol myristate acetate (PMA), Phorbol myristate acetate]
Effect on apoptosis (U937 cells [2]): inhibits apoptosis induced by TNF or UV light

COC(=O)[C@H](CCCNC(=N)N)NS(=O)(=O)c1ccc(C)cc1 [TAME, p-toluene-sulfonyl-L-arginine methyl ester]
Effect on DNA fragmentation induced by TNF or UV light (U937 cells [1]; U937 cells, result in words): without effect

Cc1ccc(S(=O)(=O)N[C@@H](CCCCN)C(=O)CCl)cc1 [TLCK, N-α-p-tosyl-L-lysine-chloromethyl ketone]
Effect on DNA fragmentation induced by TNF or UV light (U937 cells [1]; U937 cells, result in words): without effect

Aprotinin
Inhibition of apoptotic protease proteolytic activity (apoptotic protease): do not inhibit apoptotic protease | Protection from TNF-induced hepatotoxicity ([3]; Table 10, 10 mg/kg): neither of these inhibitors had much effect on ALT levels | ALT ([3]; mouse, in vivo): 346 +/- 14 U/ml

chymotrypsin
DNA fragmentation in isolated nuclei by commercial proteases (isolated U937 nuclei [5]): completely inactive | Protease activity on SAAPP substrate after elution and neutralization [6]: high levels of protease activity | Binding to DK120 affinity matrix [7]: efficiently bound

trypsin
DNA fragmentation in isolated nuclei by commercial proteases (isolated U937 nuclei [5]): completely inactive

α1-anti-protease: α1-anti-protease, protease inhibitor
DNA of nuclei treated with compound alone, gel (isolated U937 nuclei [8]; FIG. 5, lane 4): remained in high molecular weight form | Effect on protease-induced DNA fragmentation, gel (isolated U937 nuclei [8]; protease pretreated 1 hr (FIG. 5, lane 3)): DNA fragmentation was abolished

B1: leukocyte elastase: human leukocyte elastase obtained from Calbiochem (protein, UniProt P08246 30-267, looked up)
Neutrophil elastase: IVGGRRARPHAWPFMVSLQLRGGHFCGATLIAPNFVMSAAHCVANVNVRAVRVVLGAHNLSRREPTRQVFAVQRIFENGYDPVNLLNDIVILQLNGSATINANVQVAQLPAQGRRLGNGVQCLAMGWGLLGRNRGIASVLQELNVTVVTSLCRRSNVCTLVRGRQAGVCFGDSGSPLVCNGLIHGIASFVRGGCASGLYPDAFAPVAQFVNWIDSIIQRSEDNPCPHPRDPDPASRTH
DNA fragmentation in isolated nuclei by commercial proteases (isolated U937 nuclei [5]): cannot induce DNA fragmentation in U937 nuclei | DNA fragmentation in isolated nuclei by commercial proteases (isolated U937 nuclei [5]; listed as elastase): completely inactive
